Laboratory results from ChEMBL document CHEMBL6083211, “Pyrazolines inhibiting the activity of the early growth response-1 DNA-binding domain” (Bioorg Med Chem Lett, 2024).
Activity calls are given as the source filed them.

How the values were obtained:
Format in all cases: cell-based
[1] = biological target: Early growth response protein 1 (Homo sapiens) (UniProt P18146); experiment: Inhibition of EGR-1 in TNF-alpha-stimulated human HaCaT cells assessed as decrease in IL-6 level at 20 to 40 uM pretreated for 30 mins followed by TNF-alpha stimulation measured after 6 hrs by RT-PCR analysis; conditions: dose 20-40 µM, time 390.0 min
Early growth response protein 1 (Homo sapiens), sequence (P18146 whole entry, looked up): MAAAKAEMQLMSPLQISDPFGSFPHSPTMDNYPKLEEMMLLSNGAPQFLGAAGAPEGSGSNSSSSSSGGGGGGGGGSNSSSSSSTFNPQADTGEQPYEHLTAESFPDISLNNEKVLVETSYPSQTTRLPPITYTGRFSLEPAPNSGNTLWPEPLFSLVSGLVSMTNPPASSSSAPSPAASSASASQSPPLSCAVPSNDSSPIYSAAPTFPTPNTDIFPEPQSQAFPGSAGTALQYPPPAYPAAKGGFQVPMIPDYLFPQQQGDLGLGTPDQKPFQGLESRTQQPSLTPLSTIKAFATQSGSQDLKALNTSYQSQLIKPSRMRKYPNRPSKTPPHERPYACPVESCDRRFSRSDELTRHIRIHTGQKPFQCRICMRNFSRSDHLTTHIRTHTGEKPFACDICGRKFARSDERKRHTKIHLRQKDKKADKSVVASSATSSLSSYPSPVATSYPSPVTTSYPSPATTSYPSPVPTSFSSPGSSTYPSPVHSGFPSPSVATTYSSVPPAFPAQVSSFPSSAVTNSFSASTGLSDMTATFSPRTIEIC

[2] = biological target: Early growth response protein 1 (Homo sapiens) (UniProt P18146); experiment: Inhibition of EGR-1 in TNF-alpha-stimulated human HaCaT cells assessed as decrease in IL-1beta level at 20 to 40 uM pretreated for 30 mins followed by TNF-alpha stimulation measured after 6 hrs by RT-PCR analysis; conditions: dose 20-40 µM, time 390.0 min
[3] = biological target: Early growth response protein 1 (Homo sapiens) (UniProt P18146); experiment: Inhibition of EGR-1 DNA binding activity in TNF-alpha-stimulated human HaCaT cells assessed as suppression of DNA-protein complex formation treated for 1 hr by EMSA; conditions: dose 20-40 µM
[4] = biological target: Early growth response protein 1 (Homo sapiens) (UniProt P18146); experiment: Inhibition of EGR-1 in TNF-alpha-stimulated human HaCaT cells assessed as decrease in TSLP level at 20 to 40 uM pretreated for 30 mins followed by TNF-alpha stimulation measured after 6 hrs by RT-PCR analysis; conditions: dose 20-40 µM, time 390.0 min
[5] = biological target: Early growth response protein 1 (Homo sapiens) (UniProt P18146); experiment: Inhibition of EGR-1 in TNF-alpha-stimulated human HaCaT cells assessed as decrease in IL-31 level at 20 to 40 uM pretreated for 30 mins followed by TNF-alpha stimulation measured after 6 hrs by RT-PCR analysis; conditions: dose 20-40 µM, time 390.0 min

Measured: inhibition

COc1ccc(C2CC(c3c(O)ccc4ccccc34)=NN2)cc1 (stereo not given)
active: [1] | [2] | [3] Dose-dependent-effect | [4] | [5]
